Measured values taken from ChEMBL document CHEMBL5338828, “Structure-Activity Relationships of Bis-Intercalating Peptides and Their Application as Antibody-Drug Conjugate Payloads” (J Med Chem, 2023).

Experiments:
[1] = Retention time of the compound by HPLC analysis; assay type: physicochemical
[2] = Binding affinity to biotinylated hairpin DNA (unknown origin) assessed as binding constant by SPR analysis
[3] = system: Clupeidae; assay: Binding affinity to Herring sperm DNA assessed as melting temperature by differential scanning calorimetric analysis

## CC(C)[C@H]1C(=O)NC[C@@H](NC(=O)c2nc3ccccc3cc2O)C(=O)N2CCCC[C@H]2C(=O)NCC(=O)N(C)CC(=O)N(C)C(C)(C)C(=O)NC[C@@H](NC(=O)c2nc3ccccc3cc2O)C(=O)N2CCCC[C@H]2C(=O)NCC(=O)N(C)CC(=O)N1C
[1]
  Retention_time: 15.8 min
[2]
  Kd: 700 nM

## CC(C)[C@H]1C(=O)NC[C@@H](NC(=O)c2nc3ccccc3cc2O)C(=O)N2CCCC[C@H]2C(=O)NCC(=O)N(C)CC(=O)N(C)[C@@H]([C@@H](C)O)C(=O)NC[C@@H](NC(=O)c2nc3ccccc3cc2O)C(=O)N2CCCC[C@H]2C(=O)NCC(=O)N(C)CC(=O)N1C
[1]
  Retention_time: 10.6 min
[3]
  Tm: 86 °C

## CN1CC(=O)N2CCCC[C@H]2C(=O)NC[C@@H](NC(=O)c2nc3ccccc3cc2O)C(=O)N2CCCC[C@H]2C(=O)NCC(=O)N(C)CC(=O)N2CCCC[C@H]2C(=O)NC[C@@H](NC(=O)c2nc3ccccc3cc2O)C(=O)N2CCCC[C@H]2C(=O)NCC1=O
[1]
  Retention_time: 15.7 min
[2]
  Kd: 500 nM
[3]
  Tm: 97 °C

## CC(C)[C@H]1C(=O)N[C@H](C)[C@@H](NC(=O)c2nc3ccccc3cc2O)C(=O)N2CCCC[C@H]2C(=O)NCC(=O)N(C)CC(=O)N(C)[C@@H](C(C)C)C(=O)N[C@H](C)[C@@H](NC(=O)c2nc3ccccc3cc2O)C(=O)N2CCCC[C@H]2C(=O)NCC(=O)N(C)CC(=O)N1C
[1]
  Retention_time: 17.6 min
[3]
  Tm: 87 °C

## CCN1C(=O)CN(C)C(=O)CNC(=O)[C@@H]2CCCCN2C(=O)[C@H](NC(=O)c2nc3ccccc3cc2O)CNC(=O)[C@H](C(C)C)N(CC)C(=O)CN(C)C(=O)CNC(=O)[C@@H]2CCCCN2C(=O)[C@H](NC(=O)c2nc3ccccc3cc2O)CNC(=O)[C@@H]1C(C)C
[1]
  Retention_time: 17.9 min
[2]
  Kd: 500 nM

## CC(C)[C@H]1C(=O)NC[C@@H](NC(=O)c2nc3ccccc3cc2O)C(=O)N2CCCC[C@H]2C(=O)NCC(=O)N(C)CC(=O)N(C)C2(CC2)C(=O)NC[C@@H](NC(=O)c2nc3ccccc3cc2O)C(=O)N2CCCC[C@H]2C(=O)NCC(=O)N(C)CC(=O)N1C
[1]
  Retention_time: 15.4 min
[2]
  Kd: 700 nM

## C[C@H]1NC(=O)[C@@H]2CCCCN2C(=O)CN(C)C(=O)CNC(=O)[C@@H]2CCCCN2C(=O)[C@H](NC(=O)c2nc3ccccc3cc2O)[C@@H](C)NC(=O)[C@@H]2CCCCN2C(=O)CN(C)C(=O)CNC(=O)[C@@H]2CCCCN2C(=O)[C@@H]1NC(=O)c1nc2ccccc2cc1O
[1]
  Retention_time: 16.7 min
[2]
  Kd: 9 nM

## CN1CC(=O)N2CCCCC[C@H]2C(=O)NC[C@@H](NC(=O)c2nc3ccccc3cc2O)C(=O)N2CCCC[C@H]2C(=O)NCC(=O)N(C)CC(=O)N2CCCCC[C@H]2C(=O)NC[C@@H](NC(=O)c2nc3ccccc3cc2O)C(=O)N2CCCC[C@H]2C(=O)NCC1=O
[1]
  Retention_time: 15.8 min
[2]
  Kd: 770 nM

## CC(C)[C@H]1COC[C@@H](NC(=O)c2nc3ccccc3cc2O)C(=O)N2CCCC[C@H]2C(=O)NCC(=O)N(C)CC(=O)N(C)[C@@H](C(C)C)C(=O)OC[C@@H](NC(=O)c2nc3ccccc3cc2O)C(=O)N2CCCC[C@H]2C(=O)NCC(=O)N(C)CC(=O)N1C
[1]
  Retention_time: 20.2 min
[2]
  Kd: 300 nM
[3]
  Tm: 96 °C

## CC[C@H](C)[C@H]1C(=O)N[C@H](C)[C@@H](NC(=O)c2nc3ccccc3cc2O)C(=O)N2CCCC[C@H]2C(=O)NCC(=O)N(C)CC(=O)N(C)[C@@H]([C@@H](C)CC)C(=O)N[C@H](C)[C@@H](NC(=O)c2nc3ccccc3cc2O)C(=O)N2CCCC[C@H]2C(=O)NCC(=O)N(C)CC(=O)N1C
[1]
  Retention_time: 20.9 min
[3]
  Tm: 85 °C

## CC(C)[C@H]1C(=O)NC[C@@H](NC(=O)c2nc3ccccc3cc2O)C(=O)N2CCCC[C@H]2C(=O)NCC(=O)N(C)CC(=O)N2CCCC[C@H]2C(=O)NC[C@@H](NC(=O)c2nc3ccccc3cc2O)C(=O)N2CCCC[C@H]2C(=O)NCC(=O)N(C)CC(=O)N1C
[1]
  Retention_time: 16.4 min
[2]
  Kd: 570 nM
[3]
  Tm: 92 °C

## CC(C)[C@H]1C(=O)NC[C@@H](NC(=O)c2nc3ccccc3cc2O)C(=O)N2CCCC[C@H]2C(=O)NCC(=O)N(C)CC(=O)N2CCC[C@H]2C(=O)NC[C@@H](NC(=O)c2nc3ccccc3cc2O)C(=O)N2CCCC[C@H]2C(=O)NCC(=O)N(C)CC(=O)N1C
[1]
  Retention_time: 15 min
[2]
  Kd: 1100 nM
[3]
  Tm: 88 °C

## CC(C)[C@H]1C(=O)NC[C@@H](NC(=O)c2nc3ccccc3cc2O)C(=O)N2CCCC[C@H]2C(=O)NCC(=O)N(C)CC(=O)N(C)[C@@H](C2CCCCC2)C(=O)NC[C@@H](NC(=O)c2nc3ccccc3cc2O)C(=O)N2CCCC[C@H]2C(=O)NCC(=O)N(C)CC(=O)N1C
[1]
  Retention_time: 18.9 min
[2]
  Kd: 400 nM
[3]
  Tm: 86 °C

## CC(C)[C@H]1COC[C@@H](NC(=O)c2nc3ccccc3cc2O)C(=O)N2CCCC[C@H]2C(=O)NCC(=O)N(C)CC(=O)N(C)[C@@H](C(C)C)COC[C@@H](NC(=O)c2nc3ccccc3cc2O)C(=O)N2CCCC[C@H]2C(=O)NCC(=O)N(C)CC(=O)N1C
[1]
  Retention_time: 18.2 min
[3]
  Tm: 91 °C

## CN1CC(=O)N2CCCC[C@H]2COC[C@@H](NC(=O)c2nc3ccccc3cc2O)C(=O)N2CCCC[C@H]2C(=O)NCC(=O)N(C)CC(=O)N2CCCC[C@H]2C(=O)NC[C@@H](NC(=O)c2nc3ccccc3cc2O)C(=O)N2CCCC[C@H]2C(=O)NCC1=O
[1]
  Retention_time: 16.6 min
[2]
  Kd: 950 nM
[3]
  Tm: 94 °C

## CC(C)[C@H]1C(=O)N(C)C[C@@H](NC(=O)c2nc3ccccc3cc2O)C(=O)N2CCCC[C@H]2C(=O)NCC(=O)N(C)CC(=O)N(C)[C@@H](C(C)C)C(=O)N(C)C[C@@H](NC(=O)c2nc3ccccc3cc2O)C(=O)N2CCCC[C@H]2C(=O)NCC(=O)N(C)CC(=O)N1C
[1]
  Retention_time: 17.7 min
[3]
  Tm: 88 °C

## CC(C)[C@@H]1NC(=O)CN(C)C(=O)CNC(=O)[C@@H]2CCCCN2C(=O)[C@H](NC(=O)c2nc3ccccc3cc2O)CNC(=O)[C@H](C(C)C)NC(=O)CN(C)C(=O)CNC(=O)[C@@H]2CCCCN2C(=O)[C@H](NC(=O)c2nc3ccccc3cc2O)CNC1=O
[1]
  Retention_time: 14.6 min
[2]
  Kd: 9000 nM

## CC[C@@H](C)[C@H]1C(=O)NC[C@@H](NC(=O)c2nc3ccc(Br)cc3cc2O)C(=O)N2CCCC[C@H]2C(=O)NCC(=O)N(C)CC(=O)N(C)[C@@H]([C@H](C)CC)C(=O)NC[C@@H](NC(=O)c2nc3ccc(Br)cc3cc2O)C(=O)N2CCCC[C@H]2C(=O)NCC(=O)N(C)CC(=O)N1C
[1]
  Retention_time: 21 min

## CCN1CC(=O)N(C)[C@@H](C(C)C)C(=O)NC[C@@H](NC(=O)c2nc3ccccc3cc2O)C(=O)N2CCCC[C@H]2C(=O)NCC(=O)N(CC)CC(=O)N(C)[C@@H](C(C)C)C(=O)NC[C@@H](NC(=O)c2nc3ccccc3cc2O)C(=O)N2CCCC[C@H]2C(=O)NCC1=O
[1]
  Retention_time: 18.5 min
[2]
  Kd: 300 nM

## CC[C@H](C)[C@H]1C(=O)NC[C@@H](NC(=O)c2nc3ccccc3cc2O)C(=O)N2CCCC[C@H]2C(=O)NCC(=O)N(C)CC(=O)N(C)[C@@H]([C@@H](C)CC)C(=O)NC[C@@H](NC(=O)c2nc3ccccc3cc2O)C(=O)N2CCCC[C@H]2C(=O)NCC(=O)N(C)CC(=O)N1C
[1]
  Retention_time: 18.8 min
[2]
  Kd: 400 nM
[3]
  Tm: 91 °C

## O=C(N[C@@H]1CNC(=O)[C@@H]2CCCCN2C(=O)COCCNC(=O)[C@@H]2CCCCN2C(=O)[C@H](NC(=O)c2nc3ccccc3cc2O)CNC(=O)[C@@H]2CCCCN2C(=O)COCCNC(=O)[C@@H]2CCCCN2C1=O)c1nc2ccccc2cc1O
[1]
  Retention_time: 16.1 min
[3]
  Tm: 68 °C

## CC(C)[C@H]1C(=O)O[C@H](C)[C@@H](NC(=O)c2nc3ccccc3cc2O)C(=O)N2CCCC[C@H]2C(=O)NCC(=O)N(C)CC(=O)N(C)[C@@H](C(C)C)C(=O)O[C@H](C)[C@@H](NC(=O)c2nc3ccccc3cc2O)C(=O)N2CCCC[C@H]2C(=O)NCC(=O)N(C)CC(=O)N1C
[1]
  Retention_time: 21.6 min
[3]
  Tm: 85 °C

## CC(C)[C@H]1C(=O)NC[C@@H](NC(=O)c2nc3ccccc3cc2O)C(=O)N2CCCC[C@H]2C(=O)NCC(=O)N(C)CC(=O)N(C)C2(CCC2)C(=O)NC[C@@H](NC(=O)c2nc3ccccc3cc2O)C(=O)N2CCCC[C@H]2C(=O)NCC(=O)N(C)CC(=O)N1C
[1]
  Retention_time: 17 min
[2]
  Kd: 300 nM

## CC(C)[C@H]1C(=O)NC[C@@H](NC(=O)c2nc3ccccc3cc2O)C(=O)N2CCCC[C@H]2C(=O)NCC(=O)N(C)CC(=O)N2CCCCC[C@H]2C(=O)NC[C@@H](NC(=O)c2nc3ccccc3cc2O)C(=O)N2CCCC[C@H]2C(=O)NCC(=O)N(C)CC(=O)N1C
[1]
  Retention_time: 16.4 min
[2]
  Kd: 700 nM
[3]
  Tm: 88 °C

## CC(C)[C@H]1C(=O)NC[C@@H](NC(=O)c2nc3ccccc3cc2O)C(=O)N2CCCC[C@H]2C(=O)NCC(=O)N(C)CC(=O)N(C)[C@@H](c2ccccc2)C(=O)NC[C@@H](NC(=O)c2nc3ccccc3cc2O)C(=O)N2CCCC[C@H]2C(=O)NCC(=O)N(C)CC(=O)N1C
[1]
  Retention_time: 17.2 min
[2]
  Kd: 1000 nM

## CC[C@H](C)[C@H]1COC[C@@H](NC(=O)c2nc3ccccc3cc2O)C(=O)N2CCCC[C@H]2C(=O)NCC(=O)N(C)CC(=O)N(C)[C@@H](C(C)C)C(=O)NC[C@@H](NC(=O)c2nc3ccccc3cc2O)C(=O)N2CCCC[C@H]2C(=O)NCC(=O)N(C)CC(=O)N1C
[1]
  Retention_time: 19.4 min
[2]
  Kd: 50 nM

## CC[C@H](C)[C@H]1C(=O)NC[C@@H](NC(=O)c2nc3ccccc3cc2O)C(=O)N2CCCC[C@H]2C(=O)NCC(=O)N(C)CC(=O)N(C)[C@@H](C(C)C)C(=O)NC[C@@H](NC(=O)c2nc3ccccc3cc2O)C(=O)N2CCCC[C@H]2C(=O)NCC(=O)N(C)CC(=O)N1C
[1]
  Retention_time: 18 min
[2]
  Kd: 200 nM
[3]
  Tm: 89 °C

## CC(C)[C@H]1C(=O)NC[C@@H](NC(=O)c2nc3ccccc3cc2O)C(=O)N2CCCC[C@H]2C(=O)NCC(=O)N(C)CC(=O)N(C)[C@@H]([C@H](C)OC(C)(C)C)C(=O)NC[C@@H](NC(=O)c2nc3ccccc3cc2O)C(=O)N2CCCC[C@H]2C(=O)NCC(=O)N(C)CC(=O)N1C
[1]
  Retention_time: 18.4 min
[3]
  Tm: 88 °C

## CC(C)[C@H]1C(=O)NC[C@@H](NC(=O)c2nc3ccccc3cc2O)C(=O)N2CCCC[C@H]2C(=O)NCCOCC(=O)N(C)[C@@H](C(C)C)C(=O)NC[C@@H](NC(=O)c2nc3ccccc3cc2O)C(=O)N2CCCC[C@H]2C(=O)NCCOCC(=O)N1C
[1]
  Retention_time: 16 min
[3]
  Tm: 68 °C
